In article PMC2726771 (The Journal of neuroscience : the official journal of the …, 2009):
“And” between values parts separate entries of the source, which are not always exact repeats. Equal entries are not always repeated. Where two headings read alike, the source gives them in different places.

Columns and labels:
α3β2T150C nAChR = α3β2T150C nAChR (Rattus norvegicus, UniProt P04757+P12390, T176C); format: cell-based; conditions: for decrease of Mor potency / reduction of maximum Mor-evoked current (efficacy): after 100 μM reagent; for potentiation (IACh+Mor/IACh), sample traces Fig. 2: 300 μM ACh + 10 μM Mor; for potentiation: 10 μM Mor
Sequence of α3β2T150C nAChR (P04757 26-499): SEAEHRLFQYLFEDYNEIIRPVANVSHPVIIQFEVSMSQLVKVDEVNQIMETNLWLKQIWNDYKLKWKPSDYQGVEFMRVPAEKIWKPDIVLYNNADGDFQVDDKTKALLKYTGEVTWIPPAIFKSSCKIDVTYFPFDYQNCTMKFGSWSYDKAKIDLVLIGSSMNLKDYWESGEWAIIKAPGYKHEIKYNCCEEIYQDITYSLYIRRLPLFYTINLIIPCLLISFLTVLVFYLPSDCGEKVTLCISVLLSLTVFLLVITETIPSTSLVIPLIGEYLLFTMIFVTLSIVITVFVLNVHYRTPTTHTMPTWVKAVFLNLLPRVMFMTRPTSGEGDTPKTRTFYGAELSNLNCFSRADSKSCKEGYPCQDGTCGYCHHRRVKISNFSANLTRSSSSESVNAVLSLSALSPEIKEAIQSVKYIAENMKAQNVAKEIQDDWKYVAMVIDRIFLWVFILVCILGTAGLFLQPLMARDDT
Sequence of α3β2T150C nAChR (P12390 25-500 T176C): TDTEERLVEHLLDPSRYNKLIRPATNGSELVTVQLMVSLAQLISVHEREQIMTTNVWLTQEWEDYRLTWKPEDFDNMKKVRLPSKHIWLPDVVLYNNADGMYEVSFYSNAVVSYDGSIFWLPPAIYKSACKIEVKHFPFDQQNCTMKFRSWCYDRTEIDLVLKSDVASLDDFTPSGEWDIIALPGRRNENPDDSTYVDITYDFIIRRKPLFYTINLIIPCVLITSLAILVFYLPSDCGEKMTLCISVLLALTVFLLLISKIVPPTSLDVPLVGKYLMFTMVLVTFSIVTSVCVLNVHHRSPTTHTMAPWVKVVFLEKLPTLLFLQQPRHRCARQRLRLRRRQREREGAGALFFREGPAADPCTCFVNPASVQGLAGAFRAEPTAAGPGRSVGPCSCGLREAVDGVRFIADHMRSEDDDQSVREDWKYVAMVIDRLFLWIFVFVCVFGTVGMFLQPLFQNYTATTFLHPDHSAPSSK

α3T115Cβ2 nAChR = α3T115Cβ2 nAChR (Rattus norvegicus, UniProt P04757+P12390, T142C); format: cell-based; conditions: for time constant τ of MTSET modification: response to 300 μM ACh + 10 μM Mor; for potentiation (IACh+Mor/IACh), sample traces Fig. 2: 300 μM ACh + 10 μM Mor
Sequence of α3T115Cβ2 nAChR (P04757 26-499 T142C): as the sequence (P04757 26-499) above, with T117C counted along it
Sequence of α3T115Cβ2 nAChR (P12390 25-500): as the sequence (P12390 25-500 T176C) above, with C152T counted along it

α3β2S148C nAChR = α3β2S148C nAChR (Rattus norvegicus, UniProt P04757+P12390, S174C); format: cell-based
Sequence of α3β2S148C nAChR (P04757 26-499): as the sequence (P04757 26-499) above
Sequence of α3β2S148C nAChR (P12390 25-500 S174C): as the sequence (P12390 25-500 T176C) above, with S150C, C152T counted along it

α3β2 wt nAChR [1] = biological target: T1, α3β2 wt nAChR (Rattus norvegicus, UniProt P04757+P12390); format: cell-based
T1 sequence (P04757 26-499): as the sequence (P04757 26-499) above
T1 sequence (P12390 25-500): as the sequence (P12390 25-500 T176C) above, with C152T counted along it

α3β2 wt nAChR [2] = biological target: T1, α3β2 wt nAChR; conditions: ref Wu et al., 2008, cited from earlier work
α3A106Cβ2 nAChR = α3A106Cβ2 nAChR (Rattus norvegicus, UniProt P04757+P12390, A133C); format: cell-based
Sequence of α3A106Cβ2 nAChR (P04757 26-499 A133C): as the sequence (P04757 26-499) above, with A108C counted along it
Sequence of α3A106Cβ2 nAChR (P12390 25-500): as the sequence (P12390 25-500 T176C) above, with C152T counted along it

α3E113R = conditions: ref Laureijs and Levandoski, unpublished; cited from earlier work
α3β2S192C nAChR = α3β2S192C nAChR (Rattus norvegicus, UniProt P04757+P12390, S218C); format: cell-based
Sequence of α3β2S192C nAChR (P04757 26-499): as the sequence (P04757 26-499) above
Sequence of α3β2S192C nAChR (P12390 25-500 S218C): as the sequence (P12390 25-500 T176C) above, with C152T, S194C counted along it

α3S161Cβ2 nAChR = α3S161Cβ2 nAChR (Rattus norvegicus, UniProt P04757+P12390, S188C); format: cell-based
Sequence of α3S161Cβ2 nAChR (P04757 26-499 S188C): as the sequence (P04757 26-499) above, with S163C counted along it
Sequence of α3S161Cβ2 nAChR (P12390 25-500, stated change not applied): as the sequence (P12390 25-500 T176C) above, with C152T counted along it

α3β2T193C nAChR = α3β2T193C nAChR (Rattus norvegicus, UniProt P04757+P12390, T219C); format: cell-based
Sequence of α3β2T193C nAChR (P04757 26-499): as the sequence (P04757 26-499) above
Sequence of α3β2T193C nAChR (P12390 25-500 T219C): as the sequence (P12390 25-500 T176C) above, with C152T, T195C counted along it

[3] = 100 μM MTSET + 200 μM ACh treatment, ACh + 10 μM Mor
[4] = 100 μM MTSET + 200 μM ACh, four 30-sec
[5] = 100 μM MTSET applied alone, 2 min
[6] = relative to response to ACh alone at [ACh] ~ EC50
[7] = 100 μM MTSET co-applied with ACh, 2 min
[8] = after 2-min 100 μM MTSET co-applied with ACh

For `CS(=O)(=O)SCc1ccccc1` [MTSBn, benzylmethanethiosulfonate], the “decrease of Mor potency” value (α3β2T150C nAChR; four 30-sec doses) was 4 fold, the “reduction of maximum Mor-evoked current (efficacy)” value (α3β2T150C nAChR; four 30-sec doses) was 45% and the potentiation post/pre (α3T115Cβ2 nAChR; after 100 μM MTS reagent alone) was 0.99 ± 0.10. The “reduction of ACh-evoked currents” value (α3T115Cβ2 nAChR; after 100 μM MTS reagent alone) was 29 ± 9% and the “reduction of ACh/Mor-evoked currents” value (α3T115Cβ2 nAChR; after 100 μM MTS reagent alone) was 30 ± 10%.
For `C[N+](C)(C)CCSS(C)(=O)=O.[Br-]` [MTSET, [2-(trimethyl-ammonium)ethyl]methanesthiosulfonate bromide], the “decrease in efficacy of ACh/Mor concentration-response curve” value (α3β2T150C nAChR; [3]) was 50%, the “decrease in potency of ACh/Mor concentration-response curve” value (α3β2T150C nAChR; [3]) was 3 fold and the “decrease in ACh efficacy (maximum response at high ACh)” value (α3β2T150C nAChR; [4]) was 75%. The “decrease in ACh potency after MTSET/agonist co-application” value (α3β2T150C nAChR; [4]) was 4.5 fold, the “decrease of Mor potency” value (α3β2T150C nAChR; four 30-sec doses) was “without changing the potency” and the “reduction of maximum Mor-evoked current (efficacy)” value (α3β2T150C nAChR; four 30-sec doses) was 75 - 80%. The “time constant τ of MTSET modification” value (α3T115Cβ2 nAChR; 30 μM MTSET alone) was 170 s and 167 ± 22 s, the “time constant τ of MTSET modification” value (α3T115Cβ2 nAChR; 30 μM MTSET co-applied with 100 μM Mor) was 720 s and 719 ± 137 s and the “time constant τ of MTSET modification” value (α3T115Cβ2 nAChR; 30 μM MTSET co-applied with 300 μM ACh) was 34 s and 34 ± 12 s. The “reduction of ACh-evoked currents” value (α3T115Cβ2 nAChR; after 100 μM MTS reagent alone) was “unchanged”, the “reduction of ACh/Mor-evoked currents” value (α3T115Cβ2 nAChR; after 100 μM MTS reagent alone) was 32 ± 9% and the “reduction of degree of potentiation” value (α3T115Cβ2 nAChR; after 100 μM MTS reagent alone) was 31 ± 8%. For the same compound, the “decrease of Mor efficacy” value (α3T115Cβ2 nAChR; after 100 μM MTSET alone) was 66%.
For `Cc1ccsc1C=CC1=NCCCN1C.O=C(O)C(O)C(O)C(=O)O` [Mor, 1,4,5,6-tetrahydro-1-methyl-2-(2-[3-methyl-2-thienyl]ethenyl)pyrimidine, tartrate salt], the EC50 (α3β2S148C nAChR) was 110 ± 40 µM, the “Mor Potentiation % Change after MTS” value (α3β2S148C nAChR; [5]) was -7 ± 10% and the “Mor-evoked Response nH” value (α3β2S148C nAChR; Hill coefficient) was 1.4 ± 0.5. For the same compound, the “Mor Potentiation IACh+Mor/IACh” value (α3β2S148C nAChR; [ACh] ~ EC50 ± 10 μM Mor) was 4.9 ± 1.0, the “Mor-evoked Response Emax” value (α3β2S148C nAChR; [6]) was 0.36 ± 0.05 and the “Mor Potentiation % Change after MTS” value (α3β2 wt nAChR [1]; [7]) was 3 ± 3%. The “Mor Potentiation IACh+Mor/IACh” value (α3β2 wt nAChR [1]; [ACh] ~ EC50 ± 10 μM Mor) was 1.9 ± 0.1, the “potentiation (IACh+Mor/IACh), sample traces Fig. 2” value (from here on “potentiation (IACh+Mor/IACh)”) (α3β2 wt nAChR [1]; pre-MTSET, 100 μM ACh + 10 μM Mor) was 2.8 and the “Mor Potentiation % Change after MTS” value (α3β2T150C nAChR; [5]) was “* 52 ± 17%”. The “Mor-evoked Response nH” value (α3β2T150C nAChR; Hill coefficient) was 2.3 ± 0.2, the EC50 (α3β2T150C nAChR; Mor EC50, Control, pre-treatment control, Fig. 7) was 20 ± 2 µM and the EC50 (α3β2T150C nAChR; Mor EC50 after BrACh, after 100 μM BrACh, four 30-sec doses) was 30 ± 5 µM. For the same compound, the EC50 (α3β2T150C nAChR; Mor EC50 after MTSBn, after 100 μM MTSBn, four 30-sec doses) was 80 ± 20 µM, the EC50 (α3β2T150C nAChR; Mor EC50 after MTSEA, after 100 μM MTSEA, four 30-sec doses) was 30 ± 1 µM and the EC50 (α3β2T150C nAChR; Mor EC50 after MTSET, after 100 μM MTSET, four 30-sec doses) was 20 ± 4 µM. For the same compound, the EC50 (α3β2T150C nAChR; Mor-evoked Response EC50, Mor as agonist) was 26 ± 1 µM, the “Mor Potentiation IACh+Mor/IACh” value (α3β2T150C nAChR; [ACh] ~ EC50 ± 10 μM Mor) was 1.6 ± 0.1 and the “Mor nH after BrACh” value (α3β2T150C nAChR; after 100 μM BrACh) was 1.5 ± 0.4. For the same compound, the “Mor Emax after BrACh” value (α3β2T150C nAChR; after 100 μM BrACh, normalized to pre-treatment 300 μM Mor response) was 0.96 ± 0.07, the “Mor nH after MTSBn” value (α3β2T150C nAChR; after 100 μM MTSBn) was 2.7 ± 1.5 and the “Mor Emax after MTSBn” value (α3β2T150C nAChR; after 100 μM MTSBn, normalized to pre-treatment 300 μM Mor response) was 0.56 ± 0.07. For the same compound, the “Mor nH after MTSEA” value (α3β2T150C nAChR; after 100 μM MTSEA) was 2.3 ± 0.3, the “Mor Emax after MTSEA” value (α3β2T150C nAChR; after 100 μM MTSEA, normalized to pre-treatment 300 μM Mor response) was 0.20 ± 0.01 and the “Mor nH after MTSET” value (α3β2T150C nAChR; after 100 μM MTSET) was 3.4 ± 1.9. For the same compound, the “Mor Emax after MTSET” value (α3β2T150C nAChR; after 100 μM MTSET, normalized to pre-treatment 300 μM Mor response) was 0.24 ± 0.02, the “potentiation (IACh+Mor/IACh)” value (α3β2T150C nAChR; [8]) was 7.5 and the potentiation (α3β2T150C nAChR; measured at ~EC50 ACh, after MTSET treatment) was 4.0. The potentiation (α3β2T150C nAChR; measured at ~EC50 ACh, before MTSET treatment) was 1.6, the potentiation (α3β2T150C nAChR; measured at ~EC75 ACh, after MTSET treatment) was 3.0 and the potentiation (α3β2T150C nAChR; measured at ~EC75 ACh, before MTSET treatment) was 1.5. The “Mor Emax, Control” value (α3β2T150C nAChR; normalized to pre-treatment 300 μM Mor response) was 1.00, the “potentiation (IACh+Mor/IACh)” value (α3β2T150C nAChR; pre-MTSET) was 3.3 and the “I300 μM Mor/I300 μM ACh (pre)” value (α3β2T150C nAChR; pre-treatment) was 0.14 ± 0.01. The “Mor nH, Control” value (α3β2T150C nAChR; pre-treatment control, Fig. 7) was 2.2 ± 0.4, the “Mor-evoked Response Emax” value (α3β2T150C nAChR; [6]) was 0.33 ± 0.04 and the “Mor-evoked Response nH” value (α3β2 wt nAChR [2]; Hill coefficient) was 3.1 ± 1.6. For the same compound, the “Mor-evoked Response Emax” value (α3β2 wt nAChR [2]; [6]) was 0.2, the EC50 (α3A106Cβ2 nAChR) was 62 ± 11 µM and the “change in Mor potentiation after MTSET alone” value (α3A106Cβ2 nAChR; 100 μM MTSET alone, four 30-sec doses, 100 μM ACh) was “no change in potentiation outside of error”. For the same compound, the “Mor-evoked Response nH” value (α3A106Cβ2 nAChR; Hill coefficient) was 2.1 ± 0.7, the “Mor Potentiation IACh+Mor/IACh” value (α3A106Cβ2 nAChR; [ACh] ~ EC50 ± 10 μM Mor) was 1.7 ± 0.2 and the “Mor-evoked Response Emax” value (α3A106Cβ2 nAChR; [6]) was 0.56 ± 0.05. For the same compound, the EC50 (α3T115Cβ2 nAChR) was 30 µM, the “potentiation IACh+Mor/I30 μM ACh” value (α3T115Cβ2 nAChR; 30 μM ACh (~EC20)) was 7.7 and the potentiation post/pre (α3T115Cβ2 nAChR; 50 μM Mor included with the MTSET/300 μM ACh co-application) was 1.05 ± 0.07. For the same compound, the “Mor Potentiation % Change after MTS” value (α3T115Cβ2 nAChR; 100 μM MTSET co-applied with ACh (300 μM), 2 min) was “* -30 ± 4%”, the “potentiation IACh+Mor/I300 μM ACh” value (α3T115Cβ2 nAChR; 300 μM ACh (~EC50)) was 2.2 and the “Mor-evoked Response nH” value (α3T115Cβ2 nAChR; Hill coefficient, pre MTSET in Fig. 8) was 1.4 ± 0.1. The “Mor Potentiation IACh+Mor/IACh” value (α3T115Cβ2 nAChR; [ACh] ~ EC50 ± 10 μM Mor) was 2.3 ± 0.3, the “Mor nH post MTSET” value (α3T115Cβ2 nAChR; after 100 μM MTSET alone, four 30-sec doses) was 2.2 ± 1.4 and the “Mor Emax post MTSET” value (α3T115Cβ2 nAChR; after 100 μM MTSET alone, normalized to 300 μM ACh before modification) was 0.1 and 0.10 ± 0.01. For the same compound, the “potentiation (IACh+Mor/IACh)” value (α3T115Cβ2 nAChR; [8]) was 2.8, the “potentiation (IACh+Mor/IACh)” value (α3T115Cβ2 nAChR; pre-MTSET) was 4.5 and the “Mor-evoked Response Emax” value (α3T115Cβ2 nAChR; relative to response to ACh alone at [ACh] ~ EC50 (300 μM), pre MTSET in Fig. 8) was 0.3 and 0.29 ± 0.01. The Mor potentiation (α3E113R) was “completely abolishes Mor potentiation”, the EC50 (α3β2S192C nAChR) was 20 ± 6 µM and the “change in Mor potentiation after MTSET alone” value (α3β2S192C nAChR; 100 μM MTSET alone, four 30-sec doses, 30 μM ACh) was “no change in potentiation outside of error”. The “Mor-evoked Response nH” value (α3β2S192C nAChR; Hill coefficient) was 1.8 ± 0.7, the “Mor Potentiation IACh+Mor/IACh” value (α3β2S192C nAChR; [ACh] ~ EC50 ± 10 μM Mor) was 1.4 ± 0.1 and the “Mor-evoked Response Emax” value (α3β2S192C nAChR; [6]) was 0.08 ± 0.01. The “Mor Potentiation % Change after MTS” value (α3S161Cβ2 nAChR; [5]) was 3 ± 8%, the “Mor Potentiation IACh+Mor/IACh” value (α3S161Cβ2 nAChR; [ACh] ~ EC50 ± 10 μM Mor) was 1.3 ± 0.1 and the EC50 (α3β2T193C nAChR) was 20 ± 3 µM. The “Mor Potentiation % Change after MTS” value (α3β2T193C nAChR; [7]) was 2 ± 4%, the “Mor-evoked Response nH” value (α3β2T193C nAChR; Hill coefficient) was 1.7 ± 0.3 and the “Mor Potentiation IACh+Mor/IACh” value (α3β2T193C nAChR; [ACh] ~ EC50 ± 10 μM Mor) was 1.5 ± 0.1. The “Mor-evoked Response Emax” value (α3β2T193C nAChR; [6]) was 0.24 ± 0.1.
